The record followed here is BindingDB's records for PubMed 27021004 (University of Warwick, 2016).

The assay deals with T1, Phospho-N-acetylmuramoyl-pentapeptide-transferase (Bacillus subtilis (strain 168), UniProt Q03521).
T1 sequence (Q03521 whole entry): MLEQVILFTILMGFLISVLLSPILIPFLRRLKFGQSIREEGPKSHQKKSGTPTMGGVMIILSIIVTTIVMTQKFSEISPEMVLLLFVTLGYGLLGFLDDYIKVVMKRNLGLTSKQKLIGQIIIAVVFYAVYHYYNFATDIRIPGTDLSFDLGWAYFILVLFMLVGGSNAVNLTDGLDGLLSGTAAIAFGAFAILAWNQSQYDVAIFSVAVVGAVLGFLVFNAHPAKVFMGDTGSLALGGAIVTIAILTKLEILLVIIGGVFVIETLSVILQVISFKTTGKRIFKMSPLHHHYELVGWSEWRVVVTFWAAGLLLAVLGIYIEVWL
In words: Inhibition of Bacillus subtilis MraY.

On to `NC[C@H]1O[C@@H](O[C@@H](Cn2cc(CCCCCO)nn2)[C@H]2O[C@@H](n3ccc(=O)[nH]c3=O)[C@H](O)[C@@H]2O)[C@H](O)[C@@H]1O`, for which 400 nM corresponded to half-maximal inhibition (IC50).
